# What was measured:
# OCl-AML-3 cells = experiment: In vitro purging of OCl-AML-3 acute myeloid leukemia cells; format: cell-based; conditions: 2.5-5 hours exposure (FIG. 17)
# Method: (§1) For the purging assay, the cells were resuspended in complete medium with or without CR4 as indicated and incubated at 37° C., 5% CO2 for 0-5 hours. Cells were then washed thoroughly with medium to remove CR4, resuspended and plated in 1 ml volumes at 5×10^3 cells/ml, in the absence of exogenous growth factors, into 35 mm petri dishes (Nunc, Gibco) containing alpha MEM (Gibco) plus 10% FCS (Cansera Rexdale, ON.) in 0.9% (vol/vol) methylcellulose (Fluka, Switzerland). Cultures were set at 37° C., 5% CO2 in a humidified atmosphere. Colonies consisting of more than 20 cells were counted at 5 days or earlier using an inverted microscope.
# [1] = system: primary juvenile myelo-monocytic leukemia cells; experiment: Colony growth of primary JMML CD34+ cells in methylcellulose culture; format: cell-based, human; conditions: colonies at 12 days (FIG. 6)
# Method: Heparinized bone marrow cells from a JMML patient were layered over Percoll (1.077 gm/ml) (Pharmacia Fine Chemical, Piscataway N.J.) and centrifuged at 400 g at 4° C. for 10 minutes to remove neutrophils and RBCs. Cells were further fractionated and purified on Miltenyl MS columns (Miltenyl Biotec GmbH, Germany) to acquire an early progenitor population of CD34^+ cells. The fractionated BM CD34^+ cells at a density of 1×10^4 cells/ml were cultured in IMDM (OCl, Toronto) containing 0.9% (vol/vol) methylcellulose supplemented with 30% FCS (Cansera Rexdale, ON.) with the indicated concentration of CR4. The culture mixture was plated in 1 ml volumes into 35 mm petri dishes and incubated at 37° C., 5% CO2 in a humidified atmosphere. Colonies consisting of more than 20 cells were counted at 12 days or earlier using an inverted microscope.
# [2] = system: HuNS1 multiple myeloma cells; experiment: Colony growth of HuNS1 multiple myeloma cells in methylcellulose culture; format: cell-based
# Method: HuNS1 cells were plated in 35 mm petri dishes (Nunc, Gibco) in 1 ml volumes at a density of 1×10^4 cells/ml, in the absence of exogenous growth factors, containing alpha MEM plus 20% FCS (Cansera, Rexdale Ont.), and 0.9% (vol/vol) methylcellulose (Fluka, Switzerland) and the indicated concentrations of CR4. Cell cultures were incubated in a humidified atmosphere at 37° C. with 5% CO2. Colonies containing more than 20 cells were scored, using an inverted microscope, at […].
# [3] = system: Philadelphia positive Z119 acute lymphoblastic leukemia cells; experiment: Colony growth of Z119 ALL cells in methylcellulose culture; format: cell-based, human; conditions: low nanomolar doses; colonies at 7 days (FIG. 3)
# Method: Z119 cells were plated in 1 ml volumes at a density of 1×10^4 cells/ml, in the absence of exogenous growth factors, into 35 mm petri dishes (Nunc, Gibco) containing IMDM (OCl, Toronto) plus 20% FCS (Cansera Rexdale, ON.) in 0.9% (vol/vol) methylcellulose (Fluka, Switzerland) with the indicated concentration of CR4. Cultures were set at 37° C., 5% CO2 in a humidified atmosphere. Colonies consisting of more than 20 cells were counted at 7 days or earlier using an inverted microscope.
# [4] = Retention in blood after I.V. injection; format: in vivo; conditions: 30 minutes after I.V. injection
# [5] = system: Ramos B cell Burkitt's lymphoma cells; experiment: In vitro purging of Ramos B cell Burkitt's lymphoma cells; format: cell-based; conditions: 50 μM, 5 hours exposure (FIG. 18)
# Method: as §1, with “remove the” for “remove”, “ml volumes,” for “ml volumes at 5×10^3 cells/ml,”, “containing RPMI 1640” for “containing alpha MEM”, “at 12” for “at 5”
smiles,measurement,setting,value
"N#C/C(=C\C=C\c1ccc(O)c(O)c1)C(=O)NCc1ccccc1 [CR4, (E,E)-2-(benzylaminocarbonyl)-3-(3,4-dihydroxystyryl)acrylonitrile]",killing of OCl-AML-3 cells,OCl-AML-3 cells; 25 μM,significant killing
same,killing of OCl-AML-3 cells,OCl-AML-3 cells; 50 μM,significant killing
same,inhibition at 5 µM,"[1]; Homo sapiens, JMML, 288 h, 5 μM",80 to 90%
same,killing ability with primary JMML cells,[1],moderate killing ability
same,inhibition at 2.5 µM,"[2]; HuNS1, 2.5 μM (FIG. 19), read-out: inhibition of cell proliferation and survival",> 90%
same,inhibition of cell proliferation and survival,[2]; high nanomolar to low micromolar doses (FIG. 19),significantly inhibited
same,inhibition of Z119 ALL cell proliferation and survival,[3],significant inhibition
same,retention: presence in the blood,[4],still being detectable
same,killing of Ramos cells,[5],70%

# Reference: US6800659B2, “Compounds for modulating cell proliferation” (HSC Research and Development Limited Partnership, priority 2000, dated 2004)
